According to patent US11857661B2, “Anti-dandruff composition” (Kancor Ingredients Ltd, priority 2018, dated 2024):

Tests used:
[1] = test system: Malassezia furfur CBS 1878; test: Minimum inhibitory concentration, broth dilution; type: cell-based; settings: M. furfur CBS 1878; for minimum inhibition concentration (MIC) value: classic broth dilution protocol
Source text: Inhibition is defined as giving less than 20% growth compared to a control, as determined by spectrophotometric optical density (OD) reading at 620 nm, using the formula % of growth=[(ODproduct−OCabsorbance-control)]/(ODpositive growth-control).
(§1) As noted above, the anti-dandruff active portion of the anti-dandruff composition comprises (or consists essentially of) a combination of at least two of the three described anti-dandruff actives (i.e., the punicalagin composition, the first monoterpenoid composition, and the second monoterpenoid composition). The combinations are based on the additive or synergistic relationship between the individual anti-dandruff actives. Inhibition testing of the individual anti-dandruff actives to determine MIC levels followed the principles and general methods disclosed in C. Lens-Lisbonne, et al. “Methods for the evaluation of antibacterial activity of essential oils: applications to essences of thyme and cinnamon,” J. Pharm. Belg., 1987, 42(5): 297-302; and C. Lisbonne “Evaluation of bacteriostatic activity of essential oils and their components,” Doctoral Thesis, Pharmacy Faculty, Marseille, F R 1988. Interactions of bi-component mixtures (Fractional Inhibitory Concentration) were evaluated in accordance with the method described by J. L. Pons et al., “Evaluation of antimicrobial interactions between chlorhexidine, quaternary ammonium compounds, preservatives and excipients,” J. Appl. Bacteriol., 1992, 73, 395-400, to assess their additive or synergistic effects.
Briefly, as is commonly known by those skilled in the art of the instant disclosure, assessment of Malassezia furfur inhibition may be accomplished following standard and accepted practices, such as that described in U.S. Patent Application Publication No. 2008/0249186. Accordingly, an external testing laboratory performed a series of against Malassezia furfur to evaluate antimicrobial activity and interactions (see Lens, et al. “Methods for the evaluation of antimicrobial activity of essential oils,” J. Pharm. Belg. 1987). Inhibitory activity testing was conducted by mixing 100 μl of various dilutions of the test product at a double concentration with an equal volume (100 μl) of a double strength Difco™ Sabouraud dextrose broth supplemented with olive oil, inoculated between 2 to 6×10^5 cfu/mL. After incubation (24-72 hours, at 32.5° C.±2.5° C.), a spectrophotometric reading at 620 nm is performed and the percentage of growth calculated from optical density (OD) measuring each concentration with respect to a positive growth control according to the following equation: % of growth=[ODproduct−ODabsorbance-control)]/(ODpositive growth-control).
Each concentration was tested in triplicate, and two assays were performed per product. The positive growth control consisted of 100 μl 1% agar solution mixed with 100 μl of inoculated broth.

[2] = test system: Malassezia furfur CBS 1878; test: Association testing, checkerboard titration (FIC index); type: cell-based; settings: M. furfur CBS 1878; sample B alone
Source text: as §1
Study of Associations. After obtaining the MIC levels for each of the anti-dandruff actives by broth dilution method, a checkerboard titration technique was performed to assess the synergistic activity of the combinations. In order to evaluate the activity of the combinations of the anti-dandruff actives, a Fractional Inhibitory Concentration index (FICindex) was calculated: (FICindex)=FIC^A+FIC^B, where FIC^A and FIC^B represent the minimum concentrations inhibiting the M. furfur growth for anti-dandruff actives A and B, respectively. And FIC^A=MIC^Acombination/MIC^Aalone, and FIC^B=MIC^Bcombination/MIC^Balone.] A mean FIC index was calculated based on the following equation: FICindex=FIC^A+FIC^B. Synergism is defined as FIC≤0.75; additive as FIC˜1; indifference as 1<FIC≤2; and antagonism is defined as FIC>2, as reported by J. L. Pons; N. Bonnaveiro; J. Chevalier; and A. Crémieux, “Evaluation of antimicrobial interactions between chlorhexidine, quaternary ammonium compounds, preservatives and excipients,” J. Appl. Bacteriology, 1992, 73(5), 395-400.

Molecule | minimum inhibition concentration (MIC) value [1] [%] | MIC B Alone % [2] [%] | Minimum Inhibitory Concentration, Test 1 [1] [%] | Minimum Inhibitory Concentration, Test 2 [1] [%]
CC1=CCC(C(C)C)=CC1 [GTP, gamma-terpinene] | > 1 | >1 | – | –
Cc1ccc(C(C)C)c(O)c1 [TML, thymol] | 0.05 | 0.05 | – | –
O=c1oc2c(O)c(O)cc3c(=O)oc4c(O)c(O)cc1c4c23 [EA, Ellagic Acid] | 0.5 | 0.5 | 0.5 | 0.5
Punicalagins A&B | 0.05 | 0.05 | 0.05 | 0.05
Cc1ccc(C(C)C)cc1 [PCY, para-cymene] | 0.5 | 0.5 | – | –
